# Results taken from patent publication US12678412B2, “Substituted tolans for the modulation of microbial colonization” (BioMendics, LLC, priority 2017, dated 2026).
# Read-outs that look alike come from different tables or passages of the source.
# Assays:
# Assay type in all cases: cell-based
# [1] = tested on: E. coli WP2 uvrA pKM101; conditions: without metabolic activation
# Procedure: A series of dose range finding assays were performed with five bacterial strains, S. typhimurium TA97a, TA98, TA100, TA1535, and E. coli WP2 uvrA pKM101, with and without metabolic activation at three plates per dose. The following doses, along with positive and negative controls, were tested: 5000, 2500, 1250, 500, 250, 125, 50, 20, 10, 5, 2, 1, and 0.2 μg/plate. The plates were evaluated for toxicity (a decrease in plate counts with increasing dose and/or a visible thinning of the background lawn) and for precipitation of the test article. Metabolic activation was included in some samples by adding phenobarbital/benzoflavone-induced rat liver S9 fractions with cofactors (S9 mix). Prior to use, freshly thawed aliquots of rat liver S9 were mixed with a sterile cofactor mix. The S9 mix contains a 10% liver S9 concentration and was refrigerated or stored on ice until used. When testing with metabolic activation, the S9 mix was used in the assay tube in place of phosphate buffer.
# Dosing formulations were prepared to deliver all doses in a constant volume of 0.1 mL. The highest dose was prepared from test article weighed to the nearest 0.1 mg and the remaining formulations were prepared as serial dilutions from the high dose stock formulation. Using a permanent marking pen or computer printed labels, assay plates were labeled with the project and study numbers and the date. Assay plates and tubes were labeled with a unique identifier, which was used to match the assay tubes with the properly identified minimal glucose agar plate.
# The pre-incubation method was used to perform the assay. The assay mix consisted of 0.1 mL of the test article formulation or control article, 0.5 mL S9 mix or phosphate buffer, and 0.1 mL of bacterial culture. Assay tubes were incubated at 37±1° C. with gentle agitation for 20±1 minutes, then 2.0-2.5 mL top agar was added to the assay mix and the top agar/assay mix poured onto appropriately labeled minimal glucose agar plates. Once the top agar hardened, the plates were inverted and incubated at 37±1° C. for 48±2 hours. Plates were counted with the Sorcerer (v. 2.2)/Ames Study Manager (v. 1.2.4) system from Perceptive Instruments (Suffolk, UK). With this system, plate counts are automatically transferred from the plate imager (Sorcerer) to a Study Manager spreadsheet, and the data are stored in a secure manner on an Oracle database. Some plates were hand counted, e.g., if sample precipitate interferes with automatic counting or toxicity results in the formation of microcolonies, in which case, counts for these plates were entered into the spreadsheet manually. Plates were scored also with the extent of colonization by a post fix code.
# [2] = tested on: Pseudomonas aeruginosa ATCC 27312; assay: Colony forming assay, spread plate, Pseudomonas aeruginosa; conditions: for Reduction of PA counts: compared to vehicle, Tobramycin and untreated control
# Procedure: A fresh culture of pathogenic isolate was used in these examples. The bacterial strains used were Methicillin Resistant Staphylococcus aureus (MRSA USA 300), Pseudomonas aeruginosa ATCC 27312, and Candida albicans ATCC 64550.
# FIG. 5 illustrates the spread plate method used in these examples. In sum, agar plates were made, bacteria were diluted to 10^6 or 10^8 CFU/mL, bacteria and drug were mixed together and then plated. Glass spreading beads were used because they give a better bacterial spread. Plates were incubated for 24 hrs then the colonies that formed were counted.
# Proliferating cultures of Pseudomonas aeruginosa (PA, ATCC 27312) and Candida albicans (CA, ATCC 64550) were used in a colony forming assay. Freeze-dried bacteria cultures were recovered by swabbing a 3-cm diameter growth area and resuspending it to obtain a final inoculum suspension of approximately 10^6 CFU/mL. The concentration was confirmed using historical optical density measurements. Before bacteria challenge, the tolan compound BM3103 was suspended in 100% diethylene glycol monoethyl ether (Formulation C) with vehicle control consisting solely of the diethylene glycol monoethyl ether. Before plating, 100 μL of the final inoculum (10^6 CFU/mL) was mixed with 200 μL LB broth and 200 μL of BM3103 doses, vehicle, positive control (Tobramycin, 12 μg/mL for PA and 160 μg/mL for CA), or untreated control (phosphate buffered saline). The final plating concentration for the high, middle, and low BM3103 doses were 0.5%, 0.25%, and 0.1% w/v (22 mM, 11 mM, and 4 mM), respectively. The inoculum was plated on agar with centrimide and nalidixate (CN) supplement for PA (though sodium nalidixate or nalixic acid could also be used), and on Tryptic Soy Broth plates for CA experiments, at 37° C. for 24 h. Plates were photographed and counted. The experiment was done in triplicate.
# Colony counts for each treatment were tabulated and the Log of the colony forming units/mL (Log CFU/mL) were determined. The mean and standard deviation of the Log CFU/mL were calculated for each treatment. […] The medium and low dose groups reduced PA counts when compared to the vehicle, Tobramycin, and untreated control groups by about 5-fold.
# [3] = tested on: wild type E. Coli; assay: Control of microbial growth, wild type E. coli
compound,measurement,setting,value
"COc1ccc(C#Cc2ccc(O)cc2)cc1 [BM3103, 4-hydroxy-4′-methoxytolan]",Colony forming units/plate,[1]; 20 μg/plate,138.0 colony forming units/plate
same,Individual colony counts,[1]; 20 μg/plate,138
same,Colony forming units/plate,[1]; 50 μg/plate,14.0 colony forming units/plate
same,Individual colony counts,[1]; 50 μg/plate,14
same,Colony forming units/plate,[1]; 125 μg/plate,0.0 colony forming units/plate
same,Individual colony counts,[1]; 125 μg/plate,0
same,Colony forming units/plate,[1]; 250 μg/plate,0.0 colony forming units/plate
same,Individual colony counts,[1]; 250 μg/plate,0
same,Plate postfix code (individual colony counts),[1]; 250 μg/plate,A P
same,Colony forming units/plate,[1]; 500 μg/plate,0.0 colony forming units/plate
same,Individual colony counts,[1]; 500 μg/plate,0
same,Plate postfix code (individual colony counts),[1]; 500 μg/plate,A P
same,Colony forming units/plate,[1]; 1250 μg/plate,0.0 colony forming units/plate
same,Individual colony counts,[1]; 1250 μg/plate,0
same,Colony forming units/plate,[1]; 2500 μg/plate,0.0 colony forming units/plate
same,Individual colony counts,[1]; 2500 μg/plate,0
same,Plate postfix code (individual colony counts),[1]; 2500 μg/plate,A P
same,Colony forming units/plate,[1]; 5000 μg/plate,0.0 colony forming units/plate
same,Individual colony counts,[1]; 5000 μg/plate,0
same,Plate postfix code (individual colony counts),[1]; 5000 μg/plate,A P
same,Dose dependence of effect on PA bacterial counts,"[2]; 0.1-0.5% w/v, Formulation C",dose dependent inhibitory effect
same,PA bacterial counts,"[2]; high dose 0.5% w/v, 22 mM, diethylene glycol monoethyl ether (Formulation C), 24 h, FIG. 7",no bacteria colonies
same,Reduction of PA counts,"[2]; low dose 0.1% w/v, 4 mM, Formulation C, 24 h",about 5 fold
same,Reduction of PA counts,"[2]; medium dose 0.25% w/v, 11 mM, Formulation C, 24 h",about 5 fold
same,Effectiveness against wild type E. Coli,[3],effective
